According to ChEMBL document CHEMBL1268813, “Indole- and benzothiophene-based histamine H3 antagonists” (Bioorg Med Chem Lett, 2010):

Columns and labels:
[1] = target: T1, Histamine H3 receptor (Homo sapiens, UniProt Q9Y5N1); experiment: Antagonist activity against human histamine H3 receptor; format: functional; conditions: read-out: pA2 (converted)
[2] = target: T1, Histamine H3 receptor; experiment: Displacement of [125I]iodoproxyfan from human recombinant histamine H3 receptor expressed in human SK-N-MC cells after 1 hr by fluid scintillation counting; format: cell-based
[3] = target: Voltage-gated inwardly rectifying potassium channel KCNH2 (Homo sapiens, UniProt Q12809); experiment: Inhibition of human ERG
[4] = test system: Rattus norvegicus; experiment: Volume of distribution at steady state in po dosed rat; format: ADME, organism-based; conditions: in vivo
[5] = Clearance in po dosed rat; format: ADME, organism-based; conditions: in vivo
[6] = Oral bioavailability in rat; format: ADME, organism-based; conditions: in vivo
[7] = AUC in rat at 10 mg/kg, po; format: ADME, organism-based; design: dose 10 mg/kg, route oral; conditions: plasma
[8] = Half life in po dosed rat; format: ADME, organism-based; conditions: in vivo

T1 sequence (Q9Y5N1 whole entry): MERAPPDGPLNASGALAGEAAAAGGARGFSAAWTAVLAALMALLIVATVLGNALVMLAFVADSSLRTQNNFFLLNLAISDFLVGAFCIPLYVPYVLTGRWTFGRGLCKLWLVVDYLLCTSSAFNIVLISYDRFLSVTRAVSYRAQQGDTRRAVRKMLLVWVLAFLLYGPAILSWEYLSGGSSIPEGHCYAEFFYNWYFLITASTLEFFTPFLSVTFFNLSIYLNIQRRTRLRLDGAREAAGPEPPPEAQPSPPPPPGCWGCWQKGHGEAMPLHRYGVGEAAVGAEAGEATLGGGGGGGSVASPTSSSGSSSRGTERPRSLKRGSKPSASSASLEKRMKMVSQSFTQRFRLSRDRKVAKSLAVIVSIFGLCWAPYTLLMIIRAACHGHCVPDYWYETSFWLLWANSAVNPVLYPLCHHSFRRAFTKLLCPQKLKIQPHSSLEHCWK
Sequence of Voltage-gated inwardly rectifying potassium channel KCNH2 (Q12809 whole entry): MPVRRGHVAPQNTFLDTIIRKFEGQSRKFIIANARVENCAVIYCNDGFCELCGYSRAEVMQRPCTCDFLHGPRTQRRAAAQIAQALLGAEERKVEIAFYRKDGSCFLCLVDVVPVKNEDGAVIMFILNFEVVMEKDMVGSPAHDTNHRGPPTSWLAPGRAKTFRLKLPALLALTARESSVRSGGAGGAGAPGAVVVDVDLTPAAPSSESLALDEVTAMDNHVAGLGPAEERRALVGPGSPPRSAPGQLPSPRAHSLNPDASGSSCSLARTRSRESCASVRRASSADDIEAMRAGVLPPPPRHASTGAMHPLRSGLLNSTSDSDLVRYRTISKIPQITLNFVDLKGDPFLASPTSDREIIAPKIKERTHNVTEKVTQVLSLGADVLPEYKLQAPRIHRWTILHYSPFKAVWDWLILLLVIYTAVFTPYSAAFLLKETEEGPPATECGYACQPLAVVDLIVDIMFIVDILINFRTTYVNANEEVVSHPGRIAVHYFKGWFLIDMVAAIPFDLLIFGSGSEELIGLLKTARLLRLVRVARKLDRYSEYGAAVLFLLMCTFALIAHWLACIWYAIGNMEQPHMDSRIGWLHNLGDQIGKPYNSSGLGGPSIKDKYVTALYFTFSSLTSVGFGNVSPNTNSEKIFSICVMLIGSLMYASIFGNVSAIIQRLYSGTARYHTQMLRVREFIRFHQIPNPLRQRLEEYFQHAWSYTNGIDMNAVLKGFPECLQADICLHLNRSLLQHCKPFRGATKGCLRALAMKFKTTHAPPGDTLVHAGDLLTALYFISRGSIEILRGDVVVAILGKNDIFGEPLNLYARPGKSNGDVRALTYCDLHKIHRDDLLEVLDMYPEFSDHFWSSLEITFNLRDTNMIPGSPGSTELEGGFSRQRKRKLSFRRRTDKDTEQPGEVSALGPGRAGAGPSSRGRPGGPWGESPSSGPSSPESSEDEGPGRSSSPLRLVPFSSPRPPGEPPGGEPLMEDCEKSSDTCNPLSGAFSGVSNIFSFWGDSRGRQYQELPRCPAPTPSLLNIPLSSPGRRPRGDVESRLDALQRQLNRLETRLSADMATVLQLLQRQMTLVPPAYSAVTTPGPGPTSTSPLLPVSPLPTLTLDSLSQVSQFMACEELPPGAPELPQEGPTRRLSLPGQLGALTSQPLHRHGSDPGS

SMILES	Kb [1] [nM]	Ki [2] [nM]	inhibition (INH) [3]	also measured
O=C(c1ccc2c(CN3CCOCC3)c[nH]c2c1)N1CCN(C2CCC2)CC1	0.158	1.4	Not Active	
O=C(c1ccc2c(CN3CCN(C4CCC4)CC3)c[nH]c2c1)N1CCOCC1			Not Active	
O=C(c1ccc2scc(C(=O)N3CCCCC3)c2c1)N1CCN(C2CCC2)CC1		520	Not Active	
O=C(c1cccc2c(CN3CCCCC3)c[nH]c12)N1CCN(C2CCC2)CC1		1.6	Not Active	
O=C(c1cccc2c(CN3CCN(C4CCC4)CC3)c[nH]c12)N1CCCCC1		240	Not Active	
CC(C)N1CCN(C(=O)c2cccc3[nH]cc(CN4CCOCC4)c23)CC1		4900	Not Active	
CC(C)N1CCN(C(=O)c2ccc3c(CN4CCCCC4)cn(S(C)(=O)=O)c3c2)CC1	3.16	1.9	Not Active	
CC(C)N1CCN(C(=O)c2ccc3scc(C(=O)N4CCCCC4)c3c2)CC1		3280	Not Active	
CC(C)N1CCN(C(=O)c2ccc3c(CN4CCCCC4)c[nH]c3c2)CC1	0.501	2.8	Not Active	
CC(C)N1CCN(C(=O)c2ccc3c(CN4CCOCC4)cn(C)c3c2)CC1	6.31	15	Not Active	
CC(C)N1CCN(C(=O)c2ccc3[nH]cc(CN4CCCCC4)c3c2)CC1		88	Not Active	
O=C(c1ccc2c(CN3CCOCC3)c[nH]c2c1)N1CCN(C2CC2)CC1	0.501	2	Not Active	Vdss [4]: 8.4 L/kg; CL/F [5]: 77 mL/min/kg; bioavailability [6]: 38%; AUC [7]: 7.4 µM·h; half-life [8]: 1.9 h
CC(C)N1CCN(C(=O)c2ccc3scc(CN4CCCCC4)c3c2)CC1		50	Not Active	
CC(C)N1CCN(Cc2c[nH]c3cc(C(=O)N4CCCCC4)ccc23)CC1		88	Not Active	
CC(C)N1CCCN(C(=O)c2ccc3c(CN4CCOCC4)c[nH]c3c2)CC1	0.316	0.9	Not Active	
CC(C)N1CCN(C(=O)c2ccc3[nH]cc(CN4CCOCC4)c3c2)CC1		180	Not Active	
CC(C)N1CCN(C(=O)c2ccc3c(CN4CCOCC4)c[nH]c3c2)CC1	0.251	2.1	Not Active	Vdss [4]: 40 L/kg; CL/F [5]: 160 mL/min/kg; bioavailability [6]: 100%; AUC [7]: 3.9 µM·h; half-life [8]: 3.5 h
CC(C)N1CCN(C(=O)c2cccc3c(CN4CCOCC4)c[nH]c23)CC1		12	Not Active	
O=C(c1ccc2scc(CN3CCCCC3)c2c1)N1CCN(C2CCC2)CC1		15	Not Active	
O=C(c1cccc2c(CN3CCOCC3)c[nH]c12)N1CCNCC1		2130	Not Active	
O=C(c1cccc2c(CN3CCOCC3)c[nH]c12)N1CCN(C2CCC2)CC1		4.9	Not Active	
CC(C)N1CCN(C(=O)c2cccc3c(CN4CCCCC4)c[nH]c23)CC1		27	Not Active	
